# Legend:
# [1] = test system: hepatobiliary transit; conditions: commercially available agent, background statement; cited from earlier work
# [2] = test system: hepatobiliary transit (liver, gall bladder and gastro-intestinal tract); assay: Visualization of hepatobiliary transit by scintillation camera after intravenous injection (rabbit); format: in vivo, male New Zealand Albino rabbit
# Protocol: A lyophylized vial of HEPATOLITE™ (New England Nuclear Corporation's brand of Technetium Tc^99m Disofenin) is labelled with ^99m Tc-pertechnetate in accordance with manufacturer's directions. At least 1 mCi of the labelled preparation is injected intravenously into a 2.5 Kg male New Zealand Albino rabbit. The rabbit is positioned under a Searle Pho-Gamma scintillation camera in such a way that the liver and gastro-intestinal tract are within the field of view.
# Greater than 1 mCi of the ^99m Tc-Cl(SO2)-DMPE complex from either Example 1 or 2 is injected into a rabbit as in Example 3.
smiles,measurement,setting,value
"CC(C)c1cccc(C(C)C)c1NC(=O)CN(CC(=O)O)CC(=O)O (99mTc complex, metal not drawn) [Disofenin]",time to obtain an image of the hepatobiliary transit,[1],≤ 30 min
same,sequential images from the time of injection,"[2]; 2.5 Kg male rabbit, at least 1 mCi i.v.","initial liver uptake with gradual visualization of the gall bladder and gastro-intestinal tract, analogous to the diagnostically efficacious results obtained in clinical studies of normal healthy humans"
same,"time to images of the liver, gall bladder and gastro-intestinal tract (hepatobiliary transit)","[2]; rabbit, > 1 mCi (complex) or at least 1 mCi (Disofenin) i.v., sequential images",about 30 minutes
